Measured values: US8334382B2, “Substituted biaryl piperazinyl-pyridine analogues” (Neurogen Corporation, priority 2004, dated 2012)

Target: T1, human capsaicin receptor (Homo sapiens, UniProt Q8NER1)
T1 construct: expressed in transfected cells; host or cells: HEK293, stably transfected with pBK-CMV construct
Experiment: Calcium mobilization assay, determination of antagonist activity
Type: cell-based
Details: capsaicin at EC50; cells expressing human capsaicin receptor; Example 6
Procedure: A cDNA encoding full length human capsaicin receptor (SEQ ID NO:1, 2 or 3 of U.S. Pat. No. 6,482,611) is subcloned in the plasmid pBK-CMV (Stratagene, La Jolla, Calif.) for recombinant expression in mammalian cells.
Human embryonic kidney (HEK293) cells are transfected with the pBK-CMV expression construct encoding the full length human capsaicin receptor using standard methods. The transfected cells are selected for two weeks in media containing G418 (400 μg/ml) to obtain a pool of stably transfected cells. Independent clones are isolated from this pool by limiting dilution to obtain clonal stable cell lines for use in subsequent experiments.
Cells transfected with expression plasmids (as described in Example 4) and thereby expressing human capsaicin receptor are seeded and grown to 70-90% confluency in FALCON black-walled, clear-bottomed 96-well plates (#3904, BECTON-DICKINSON, Franklin Lakes, N.J.). The culture medium is emptied from the 96 well plates and FLUO-3 AM calcium sensitive dye (Molecular Probes, Eugene, Oreg.) is added to each well (dye solution: 1 mg FLUO-3 AM, 440 μL DMSO and 440 μl 20% pluronic acid in DMSO, diluted 1:250 in Krebs-Ringer HEPES (KRH) buffer (25 mM HEPES, 5 mM KCl, 0.96 mM NaH2PO4, 1 mM MgSO4, 2 mM CaCl2, 5 mM glucose, 1 mM probenecid, pH 7.4), 50 μl diluted solution per well). Plates are covered with aluminum foil and incubated at 37° C. for 1-2 h in an environment containing 5% CO2. After the incubation, the dye is emptied from the plates, and the cells are washed once with KRH buffer, and resuspended in KRH buffer.
To measure the ability of a test compound to agonize or antagonize a calcium mobilization response in cells expressing capsaicin receptors to capsaicin or other vanilloid agonist, the EC50 of the agonist capsaicin is first determined. An additional 20 μl of KRH buffer and 1 μl DMSO is added to each well of cells, prepared as described above. 100 μl capsaicin in KRH buffer is automatically transferred by the FLIPR instrument to each well. Capsaicin-induced calcium mobilization is monitored using either FLUOROSKAN ASCENT (Labsystems; Franklin, Mass.) or FLIPR (fluorometric imaging plate reader system; Molecular Devices, Sunnyvale, Calif.) instruments. Data obtained between 30 and 60 seconds after agonist application are used to generate an 8-point concentration response curve, with final capsaicin concentrations of 1 nM to 3 μM. KALEIDAGRAPH software (Synergy Software, Reading, Pa.) is used to fit the data to the equation: y=a*(1/(1+(b/x)^c)) to determine the 50% excitatory concentration (EC50) for the response. In this equation, y is the maximum fluorescence signal, x is the concentration of the agonist or antagonist (in this case, capsaicin), a is the Emax, b corresponds to the EC50 value and c is the Hill coefficient. Determination of Agonist Activity
Test compounds are dissolved in DMSO, diluted in 20 μl KRH buffer so that the final concentration of test compounds in the assay well is between 1 μM and 5 μM, and added to cells prepared as described above. The 96 well plates containing prepared cells and test compounds are incubated in the dark, at room temperature for 0.5 to 6 h. It is important that the incubation not continue beyond 6 h. Just prior to determining the fluorescence response, 100 μl capsaicin in KRH buffer at twice the EC50 concentration determined as described above is automatically added by the FLIPR instrument to each well of the 96 well plate for a final sample volume of 200 μl and a final capsaicin concentration equal to the EC50. The final concentration of test compounds in the assay wells is between 1 μM and 5 μM. […] The concentration of antagonist required to provide a 50% decrease, relative to the response observed in the presence of capsaicin and without antagonist, is the IC50 for the antagonist, and is preferably below 1 micromolar, 100 nanomolar, 10 nanomolar or 1 nanomolar.

T1 sequence (Q8NER1 whole entry): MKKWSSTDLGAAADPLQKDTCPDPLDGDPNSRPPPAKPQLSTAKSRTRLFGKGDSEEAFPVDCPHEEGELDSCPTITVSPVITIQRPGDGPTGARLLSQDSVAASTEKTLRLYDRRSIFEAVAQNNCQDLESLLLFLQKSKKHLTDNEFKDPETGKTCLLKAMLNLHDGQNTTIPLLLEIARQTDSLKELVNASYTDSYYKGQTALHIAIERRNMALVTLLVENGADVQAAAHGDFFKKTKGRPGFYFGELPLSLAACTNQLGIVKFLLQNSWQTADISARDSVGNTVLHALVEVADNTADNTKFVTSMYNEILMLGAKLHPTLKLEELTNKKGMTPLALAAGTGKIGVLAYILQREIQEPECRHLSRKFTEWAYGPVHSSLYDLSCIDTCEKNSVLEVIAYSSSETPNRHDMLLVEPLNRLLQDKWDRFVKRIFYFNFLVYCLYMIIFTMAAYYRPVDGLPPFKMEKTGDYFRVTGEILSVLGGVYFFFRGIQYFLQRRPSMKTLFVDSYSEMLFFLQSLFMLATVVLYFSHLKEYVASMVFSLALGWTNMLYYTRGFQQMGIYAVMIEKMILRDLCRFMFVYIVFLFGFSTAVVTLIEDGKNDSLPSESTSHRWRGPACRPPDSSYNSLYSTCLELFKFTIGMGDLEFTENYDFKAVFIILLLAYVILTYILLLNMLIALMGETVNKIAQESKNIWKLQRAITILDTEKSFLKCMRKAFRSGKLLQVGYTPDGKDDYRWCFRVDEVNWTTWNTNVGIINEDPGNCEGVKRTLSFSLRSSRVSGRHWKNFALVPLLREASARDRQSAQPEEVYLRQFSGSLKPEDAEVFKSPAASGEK

IC50, ≤ 1000 nM:
Cc1cc(CC(=O)OC(C)(C)C)cnc1N1CCN(c2cc(-c3ccc(F)cc3)nc(N3CCC[C@H]3C)n2)[C@H](C)C1 (relative stereo) [Example 190, tert-butyl rel-{6-[(3R)-4-{6-(4-fluorophenyl)-2-[(2R)-2-methylpyrrolidin-1-yl]pyrimidin-4-yl}-3-methylpiperazin-1-yl]-5-methylpyridin-3-yl}acetate]
C[C@@H]1CN(c2ncc(/C=C/CO)cc2Cl)CCN1c1cc(-c2ccc(F)c(Cl)c2)nc(N2CCC[C@H]2C)n1 (relative stereo) [Example 191, rel-(2E)-3-{5-chloro-6-[(3R)-4-{6-(3-chloro-4-fluorophenyl)-2-[(2R)-2-methylpyrrolidin-1-yl]pyrimidin-4-yl}-3-methylpiperazin-1-yl]pyridin-3-yl}prop-2-en-1-ol]
Cc1cc(OCCO)cnc1N1CCN(c2cc(-c3ccc(F)cc3)nc(N3CCC[C@H]3C)n2)[C@H](C)C1 (relative stereo) [Example 192, rel-2-({6-[(3R)-4-{6-(4-fluorophenyl)-2-[(2R)-2-methylpyrrolidin-1-yl]pyrimidin-4-yl}-3-methylpiperazin-1-yl]-5-methylpyridin-3-yl}oxy)ethanol]
C[C@@H]1CN(c2ncc(CCCO)cc2Cl)CCN1c1cc(-c2ccc(F)c(Cl)c2)nc(N2CCC[C@H]2C)n1 (relative stereo) [Example 193, rel-3-{5-chloro-6-[(3R)-4-{6-(3-chloro-4-fluorophenyl)-2-[(2R)-2-methylpyrrolidin-1-yl]pyrimidin-4-yl}-3-methylpiperazin-1-yl]pyridin-3-yl}propan-1-ol]
CCOC(=O)c1cccnc1N1CCN(c2cc(-c3ccc(F)c(Cl)c3)nc(N3CCOCC3)n2)CC1 [Example 1, 2-{4-[6-(3-Chloro-4-fluoro-phenyl)-2-morpholin-4-yl-pyrimidin-4-yl]-piperazin-1-yl}-nicotinic acid ethyl ester]
NC(=O)c1cccnc1N1CCN(c2cc(-c3ccc(F)c(Cl)c3)nc(N3CCOCC3)n2)CC1 [Example 2, 2-{4-[6-(3-Chloro-4-fluoro-phenyl)-2-morpholin-4-yl-pyrimidin-4-yl]-piperazin-l-yl}-nicotinamide]
O=C(O)c1cccnc1N1CCN(c2cc(-c3ccc(F)c(Cl)c3)nc(N3CCOCC3)n2)CC1 [Example 3, 2-{4-[6-(3-Chloro-4-fluoro-phenyl)-2-morpholin-4-yl-pyrimidin-4-yl] - piperazin-1-yl}-nicotinic acid]
O=[N+]([O-])c1cccnc1N1CCN(c2cc(-c3ccc(F)c(Cl)c3)nc(N3CCOCC3)n2)CC1 [Example 4, 4-{4-(3-Chloro-4-fluoro-phenyl)-6-[4-(3-nitro-pyridin-2-yl)-piperazin-1-yl]-pyrimidin-2-yl}-morpholine]
Cc1cc([N+](=O)[O-])cnc1N1CCN(c2cc(-c3ccc(F)c(Cl)c3)nc(N3CCCC3C)n2)CC1 (stereo not drawn) [Example 5, 4-(3-Chloro-4-fluoro-phenyl)-6-[4-(3-methyl-5-nitro-pyridin-2-yl)-piperazin-1-yl]-2-(2-methyl-pyrrolidin-1-yl)-pyrimidine]
Cc1cc(OCCN(C)C)cnc1N1CCN(c2cc(-c3ccc(F)c(Cl)c3)nc(N3CCCC3C)n2)CC1 (stereo not drawn) [Example 6, [2-(6-{4-[6-(3-Chloro-4-fluoro-phenyl)-2-(2-methyl-pyrrolidin-1-yl)-pyrimidin-4-yl]-piperazin-1-yl}-5-methyl-pyridin-3-yloxy)-ethyl]-dimethyl-amine]
CC1CCCN1c1nc(-c2ccc(F)c(Cl)c2)cc(N2CCN(c3nccc(C(=O)O)c3Cl)CC2)n1 (stereo not drawn) [Example 7, 3-Chloro-2-{4-[6-(3-chloro-4-fluoro-phenyl)-2-(2-methyl-pyrrolidin-1-yl)-pyrimidin-4-yl]-piperazin-1-yl}-isonicotinic acid]
COC(=O)c1cnc(N2CCN(c3cc(-c4ccc(F)c(Cl)c4)nc(N4CCCC4C)n3)[C@H](C)C2)c(Cl)c1 (stereo partly drawn) [Example 8, 5-Chloro-6-{4-[6-(3-chloro-4-fluoro-phenyl)-2-(2-methyl-pyrrolidin-1-yl)-pyrimidin-4-yl]-3-(R)-methyl-piperazin-1-yl}-nicotinic acid methyl ester]
CC1CCCN1c1nc(-c2ccc(F)c(Cl)c2)cc(N2CCN(c3ncc(C(=O)O)cc3Cl)C[C@H]2C)n1 (stereo partly drawn) [Example 9, 5-Chloro-6-{4-[6-(3-chloro-4-fluoro-phenyl)-2-(2-methyl-pyrrolidin-1-yl)-pyrimidin-4-yl]-3-(R)-methyl-piperazin-l-yl}-nicotinic acid]
CC1CCCN1c1nc(-c2ccc(F)c(Cl)c2)cc(N2CCN(c3ncc(CO)cc3Cl)CC2)n1 (stereo not drawn) [Example 10, (5-Chloro-6-{4-[6-(3-chloro-4-fluoro-phenyl)-2-(2-methyl-pyrrolidin-1-yl)-pyrimidin-4-yl]-piperazin-1-yl}-pyridin-3-yl)-methanol]
CNCc1cnc(N2CCN(c3cc(-c4ccc(F)c(Cl)c4)nc(N4CCCC4C)n3)CC2)c(Cl)c1 (stereo not drawn) [Example 11, (5-Chloro-6-{4-[6-(3-chloro-4-fluoro-phenyl)-2-(2-methyl-pyrrolidin-1-yl)-pyrimidin-4-yl]-piperazin-1-yl}-pyridin-3-ylmethyl)-methyl-amine]
CC1CCCN1c1nc(-c2ccc(F)c(Cl)c2)cc(N2CCN(c3ncc(CN)cc3Cl)CC2)n1 (stereo not drawn) [Example 12, C-(5-Chloro-6-{4-[6-(3-chloro-4-fluoro-phenyl)-2-(2-methyl-pyrrolidin-l-yl)-pyrimidin-4-yl]-piperazin-1-yl}-pyridin-3-yl)-methylamine]
CC1CCCN1c1nc(-c2ccc(F)c(Cl)c2)cc(N2CCN(c3ncc(CO)cc3Cl)C[C@H]2C)n1 (stereo partly drawn) [Example 13, (5-Chloro-6-{4-[6-(3-chloro-4-fluoro-phenyl)-2-(2-methyl-pyrrolidin-1-yl)-pyrimidin-4-yl]-3-(R)-methyl-piperazin-1-yl}-pyridin-3-yl)-methanol]
CCCN1CCN(c2nc(-c3ccc(F)c(Cl)c3)cc(N3CCN(c4ncc([N+](=O)[O-])cc4C)CC3)n2)CC1 [Example 14, 4-(3-Chloro-4-fluoro-phenyl)-6-[4-(3-methyl-5-nitro-pyridin-2-yl)-piperazin-l-yl]-2-(4-propyl-piperazin-1-yl)-pyrimidine]
CC1CCCN1c1nc(-c2ccc(F)c(Cl)c2)cc(N2CCN(c3ncc(C(N)=O)cc3Cl)CC2)n1 (stereo not drawn) [Example 15, 5-Chloro-6-{4-[6-(3-chloro-4-fluoro-phenyl)-2-(2-methyl-pyrrolidin-1-yl)-pyrimidin-4-yl]-piperazin-l-yl}-nicotinamide]
CCCN1CCN(c2nc(-c3ccc(F)c(Cl)c3)cc(N3CCN(c4ncc(CO)cc4Cl)CC3)n2)CC1 [Example 16, (5-Chloro-6-{4-[6-(3-chloro-4-fluoro-phenyl)-2-(4-propyl-piperazin-1-yl)-pyrimidin-4-yl]-piperazin-1-yl}-pyridin-3-yl)-methanol]
CCCN1CCN(c2nc(-c3ccc(F)c(Cl)c3)cc(N3CCN(c4ncc(C(=O)O)cc4Cl)CC3)n2)CC1 [Example 17, 5-Chloro-6-{4-[6-(3-chloro-4-fluoro-phenyl)-2-(4-propyl-piperazin-1-yl)-pyrimidin-4-yl]-piperazin-1-yl}-nicotinic acid]
